# Test results published in patent publication US20240279190A1, “COMPOUNDS FOR MODULATING PLATELET-TYPE 12-(S)-LIPOXYGENASE AND METHODS OF USE FOR SAME” (The Regents of The University of California, priority 2021, published 2024).
# Changes are numbered by the printed parent chain.
# Columns and labels:
# 12-LOX mutant F414L = target: T1, 12-LOX mutant F414L (Homo sapiens, UniProt P18054, F414L); experiment: UV-Vis-based IC50 assay, F414L mutant; assay type: biochemical
# T1 construct: 6xHis (N); made in house; pFastBac1 shuttle vector
# T1 sequence (P18054 1-663 F414L): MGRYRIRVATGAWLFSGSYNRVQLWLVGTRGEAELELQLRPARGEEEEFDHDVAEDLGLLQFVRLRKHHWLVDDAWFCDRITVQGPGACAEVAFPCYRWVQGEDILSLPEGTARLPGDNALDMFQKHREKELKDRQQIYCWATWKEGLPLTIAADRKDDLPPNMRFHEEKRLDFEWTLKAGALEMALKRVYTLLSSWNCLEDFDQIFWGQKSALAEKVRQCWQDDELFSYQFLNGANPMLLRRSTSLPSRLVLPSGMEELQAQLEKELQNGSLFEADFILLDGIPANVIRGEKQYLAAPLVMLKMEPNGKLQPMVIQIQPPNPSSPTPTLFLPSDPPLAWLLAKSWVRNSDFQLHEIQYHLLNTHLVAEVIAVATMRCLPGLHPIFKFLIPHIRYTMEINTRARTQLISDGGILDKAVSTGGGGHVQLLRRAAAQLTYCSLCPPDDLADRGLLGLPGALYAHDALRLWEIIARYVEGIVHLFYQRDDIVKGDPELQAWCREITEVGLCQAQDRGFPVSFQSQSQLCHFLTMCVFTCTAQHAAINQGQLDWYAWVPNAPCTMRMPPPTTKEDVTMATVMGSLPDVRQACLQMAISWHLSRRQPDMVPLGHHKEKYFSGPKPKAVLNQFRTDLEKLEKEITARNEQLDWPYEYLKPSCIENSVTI
# Source text: (§1) Based on the ML355 binding mode predicted by the modeling, all residues within 5 Å of any atom of ML355 were selected for experimental mutagenesis. The selected residues were replaced with amino acids with either bulkier or smaller side chains in order to determine what specific interactions play a role in inhibitor binding. […] The numbering refers to the UniProt accession number P18054 sequence, with the N-terminal methionine assigned as amino acid number one. The primers for all mutants were designed using the online QuikChange Primer Design tool (http://www.genomics.agilent.com/primerDesignProgram.jsp) from Agilent Technologies (CA, USA). The mutations were introduced by using the QuikChange® II XL site-directed mutagenesis kit from Agilent, following the instructions in the protocol provided. […]
# (§2) The wild type 12-LOX (wt-12-LOX) enzyme and its mutants were expressed as fusion proteins, with an N-terminal 6×His tag, and were affinity purified by nickel-iminodiacetic acid agarose using FPLC (Biorad).
# (§3) The percent inhibition was determined by comparing the enzyme rates of the control (DMSO solvent) and the inhibitor sample by following the formation of the conjugated diene product at 234 nm (ε=25,000 M^−1cm^−1). […] The substrate concentration was quantitatively determined by allowing the enzymatic reaction to go to completion in the presence of soybean LOX-1. […]
# [1] = target: T2, 12-LOX mutant L407G/A417I/V418M (Homo sapiens, UniProt P18054, A417I/L407G/V418M); experiment: UV-Vis-based IC50 assay, L407G/A417I/V418M mutant; assay type: biochemical
# T2 construct: 6xHis (N); made in house; pFastBac1 shuttle vector
# T2 sequence (P18054 1-663 L407G/A417I/V418M): T1 sequence (P18054 1-663 F414L) with L407G, L414F, A417I, V418M
# Source text: as §1, §2, §3
structure (smiles),measurement,setting,value
"COc1cccc(CNc2ccc(S(=O)(=O)Nc3nc4c(ccc5ccccc54)s3)cc2)c1O [Compound LOX-12-001, 4-((2-hydroxy-3-methoxybenzyl)amino)-N-(naphtho[1,2-d]thiazol-2-yl)benzenesulfonamide]",IC50,12-LOX mutant F414L; F414L,180 ± 10 nM
same,fold increase in IC50 compared to wt12-LOX,12-LOX mutant F414L; F414L vs wt12-LOX,3.6 fold
same,IC50,[1],> 150000 nM
same,inhibition at 20 µM,"[1]; 20 uM inhibitor, read-out: Percent inhibition at 20 uM inhibitor",10%
